Read-outs that look alike come from different tables or passages of the source.
Molecular target: SARS-CoV-2 NSP3 macrodomain (Mac1), P43 crystal form (Severe acute respiratory syndrome coronavirus 2, UniProt P0DTD1)
Format: binding
Conditions: for 1-BDC: PanDDA background density correction; for X-ray crystal structure: TRUE = crystal structure with ligand determined; for PanDDA run, DMSO background map: 1-BDC: event 1; for Total number of conformations: ligand conformations modeled in Mac1 crystal structure; for Binding site: site of Mac1 where ligand bound in crystal structure
[1] = crystal soak concentration 20 mM
[2] = crystal soak concentration 20 mM, P43 crystals
[3] = crystal soak, soak concentration 10 mM
[4] = crystal soak, soak concentration 10 mM, P43 crystals, TRUE = ligand-binding event identified
[5] = crystal soak, soak concentration 10 mM, TRUE = ligand modeled
[6] = occupancy estimate from PanDDA 1-BDC
[7] = crystal soak concentration 3 mM, P43 crystals
[8] = crystal soak concentration 3 mM
[9] = crystal soak concentration 10 mM
[10] = crystal soak concentration 10 mM, P43 crystals

Row | Structure (SMILES) | 1-BDC | X-ray crystal structure | PanDDA run, DMSO background map: Hit [1] | PanDDA run, DMSO background map: 1-BDC [1] | Pandda run, overall: Hit [2] | Pandda run, overall: Modeling comment [2] | Pandda run, overall: Hit [4] | PanDDA run, DMSO background map: Hit [3] | PanDDA run, DMSO background map: Modeled [3] | PanDDA run, DMSO background map: 1-BDC [3] | Pandda run, overall: Modeled [5] | Total number of conformations | 2*(1-BDC) (%) [6] | Binding site | PanDDA run, DMSO background map: 1-BDC [9] | Pandda run, overall: Hit [10] | Pandda run, overall: Modeled [10] | PanDDA run, DMSO background map: Hit [9] | PanDDA run, DMSO background map: Modeled [9] | other results
1 | O=C(O)C1CCCN1S(=O)(=O)c1cccc2nsnc12 (stereo not drawn) [AVI-2] | 0.2 | TRUE | TRUE | 0.22 | TRUE | Duplicate, not modeled | TRUE | TRUE | TRUE | 0.2 | TRUE | 1 | 40% | Adenosine |  |  |  |  |  | Pandda run, overall: Modeling comment [3]: DMSO
2 | CC1CC(C(=O)O)CCN1C(=O)c1ccc2c(c1)NC(=O)CO2 (stereo not drawn) [AVI-303] | 0.13 | TRUE | TRUE | 0.19 | TRUE | Duplicate, not modeled | TRUE | TRUE | TRUE | 0.13 | TRUE | 1 | 26% | Adenosine |  |  |  |  |  | 
3 | Cc1c(C)n(Cc2ccccc2)c2ncnc(N)c12 [AVI-321] | 0.08 | TRUE |  |  |  |  |  |  |  |  |  | 1 | 16% | Adenosine |  |  |  |  |  | PanDDA run, DMSO background map: 1-BDC: 0.15; Pandda run, overall: Hit [7]: TRUE; Pandda run, overall: Modeled [7]: TRUE; PanDDA run, DMSO background map: Hit [8]: TRUE; PanDDA run, DMSO background map: Modeled [8]: TRUE; PanDDA run, DMSO background map: 1-BDC [8]: 0.08
4 | Cc1cc2c(=O)n(CCN3C(=O)c4ccccc4S3(=O)=O)nnc2s1 [AVI-341] | 0.18 | TRUE | TRUE | 0.19 | TRUE | Duplicate, not modeled |  |  |  |  |  | 1 | 36% | Adenosine | 0.18 | TRUE | TRUE | TRUE | TRUE | 
5 | CNc1ccc(NS(=O)(=O)c2cc3cccc(C)c3s2)cn1 [AVI-345] | 0.26 | TRUE | TRUE | 0.26 | TRUE |  |  |  |  |  |  | 1 |  | Adenosine | 0.17 | TRUE |  | TRUE |  | Occupancy difference (refined_occupancy - 2*(1-BDC)): 0; Refined ligand occupancy (%): 52%; Pandda run, overall: Modeling comment [10]: Duplicate, not modeled; PanDDA run, DMSO background map: Modeled [1]: TRUE; Pandda run, overall: Modeled [2]: TRUE; 2*(1-BDC) (%) (occupancy estimate from PanDDA BDC): 52%
6 | CC1CCN(C(=O)c2ccc3c(c2)nc(CO)n3C)CC1C(=O)O (stereo not drawn) [AVI-348] | 0.25 | TRUE | TRUE | 0.34 | TRUE | Duplicate, not modeled |  |  |  |  |  | 1 | 50% | Adenosine | 0.25 | TRUE | TRUE | TRUE | TRUE | 

Source: doi:10.1101/2024.08.25.609621 (bioRxiv, 2024)
